Test results reported in patent US8173428B2, “LNA oligonucleotides and the treatment of cancer” (Santaris Pharma A/S, priority 2004, dated 2012).
pIC50: −log10 of the molar value. Read-outs that look alike come from different tables or passages of the source. Oligonucleotides are written 5' to 3', each unit as a sugar letter and its base; * is a phosphorothioate linkage, no mark a phosphodiester; rarer units and linkages stand in square brackets, end groups in braces. Plain capitals give the bases only. l = locked nucleic acid (LNA); [5mC] = 5-methylcytosine; d = 2'-deoxy (DNA)

How the values were obtained:
15PC3 cells = assay: MTS assay of proliferating viable cells; type: cell-based, human
Description: Culturing of cells: 15PC3 was cultured in DMEM (Sigma) containing 10% fetal bovine serum, Glutamax I and gentamicin at 37° C., 95% humidity and 5% CO2. The cervical carcinoma cell line HeLa were cultured in MEM (Sigma) containing 10% fetal bovine serum, Glutamax I and gentamicin at 37° C., 95% humidity and 5% CO2. When reaching 60-70% confluency, the cells were transfected using Lipofectamine 2000 (5 μg/ml).
Cells were seeded to a density of 10000 cells per well in clear 96 well plate (Scientific Orange no. 1472030100) in DMEM the day prior to transfection. The next day cells were washed once in prewarmed OptiMEM followed by addition of 72 μl OptiMEM containing 5 μg/ml Lipofectamine 2000 (Invitrogen). Cells were incubated for 7 min before adding 18 μl oligonucleotides diluted in OptiMEM. […] After 4 hours of treatment, cells were washed in OptiMEM and 100 μl serum containing DMEM was added. Following oligonucleotide treatment cells were allowed to recover for the period indicated, viable cells were measured by adding 20 μl of the tetrazolium compound [3-(4,5-[…])-5-(3-carboxymethoxyphenyl)-2-(4-sulfophenyl)-2H-tetrazolium, inner salt; MTS] and an electron coupling reagent (phenazine ethosulfate, PES; CellTiter 96® AQueous One Solution Cell Proliferation Assay, Promega). Viable cells were measured at 490 nm and 650 nm in a Powerwave (Biotek Instruments).
The inhibition of growth rate ΔOD (490-650 nm)/h was plotted against the oligonucleotide concentration relative to mock, which was set to 100%. The maximum inhibition of proliferation observed in the MTS assay was 70% (minimum 30%). (Table 5 and FIG. 5)

[1] = Stability in human plasma; type: in vitro ADME; details: 20 μM, 37° C., up to 96 hours
Description: Stability of 20 μM SEQ ID NO. 2 and SEQ ID NO. 24 in human and mouse plasma (Li-Heparine (Taconic, M&B)) at 37° C. at different time aliquots: 0, 1, 2, 4, 24, 48 and 96 hours. A commercially available ladder was also included (10 and 20 mer are visible on the PAGE). (see FIG. 1)

Survivin protein = assay: Tumour analysis: Survivin protein by Western blotting after intratumoural injection; type: in vivo, Balb/cA-nu mice; details: 25 mg/kg intratumoral, 6 times over 2 weeks, sampling 24 hours after last dose, versus saline
Description: Model: PC-3 human prostate cancer cells (ECACC) are mixed with Matrigel and injected s.c. into both flanks of female Balb/cA-nu mice on Day 0.
Administration: Oligonucleotides i.p. (see FIG. 8) or intratumoural (see FIG. 9), Taxol i.v., all according to schedule
cDNA synthesis: First strand synthesis was performed using OmniScript Reverse Transcriptase kit according to the manufacturer's instructions (Qiagen). […] Protein levels were analysed on individual tumours by western blotting (see FIG. 9). Real time PCR analysis: To determine the relative Survivin mRNA level treated and untreated tumours, the generated cDNA was used in quantitative PCR analysis using an iCycler from BioRad. The cDNA was diluted 5-fold and 8 μl was mixed with 52 μl Taqman probe master mix containing 30 μl Platinum Quantitative PCR SuperMix UDG 2×PCR master mix (Invitrogen), 3 μl 20× Taqman probe and primer mix (forward primer: 5′-[…]-3′ (SEQ ID NO. 29), final 0.9 μM. Reverse primer: 5′-[…]-3′ (SEQ ID NO. 30), final 0.6 μM and taqman probe: FAM-5′-[…]-TAMRA-3′ (SEQ ID NO. 31), final 0.1 μM) and 19 μl H2O. […] To normalize any variance in sample preparation, the endogenous GAPDH mRNA was quantified using a pre-developed Taqman assay reagent from Applied Biosystems (4310884E) according to manufacture's instructions. […] Total protein concentrations were measured using a BCA protein assay kit (Pierce). […]

5′-^MeCsTs^MeCsAsastscscsastsgsgs^MeCsAsGsc-3′ (l[5mC]*lT*l[5mC]*lA*dA*dT*dC*dC*dA*dT*dG*dG*l[5mC]*lA*lG*dC) [SEQ ID NO. 2]
Proliferation (relative number of viable cells) (15PC3 cells; 0.2, 1, 5, 25 and 100 nM, 13-72 hours after transfection, 15PC3 cells): dose dependent inhibition of proliferation | pIC50 (15PC3 cells; 48 hours (Table 7, FIG. 5), read-out: Proliferation IC50 (48 hours)): 8.30 | pIC50 (15PC3 cells; 48 hours, transfected 15PC3 cells (Table 5), read-out: Inhibition of proliferation, MTS assay IC50 (48 hours)): 8.31 | Stability in human plasma (degradation products) [1]: No degradation products | Survivin protein level in tumours (Survivin protein): reduced levels of both mRNA and Survivin protein
